Test results: patent US6706740B2, “Fungicidal heterocyclic aromatic amides and their compositions, methods of use and preparation” (Dow AgroSciences LLC, priority 1999, dated 2004)
Where two headings read alike, the source gives them in different places.

Assays:
[1] = tested on: Phytophthora infestans—PHYTIN; assay: whole plant or invertebrate; format: in vivo; settings: Phytophthora, in Solanum lycopersicum, 24 h, read-out: PHYTIN in vivo 1 Day Protectant
[2] = tested on: Rhizoctonia solani (RHIZSO); assay: microbe, parasite or virus in culture; format: cell-based; settings: Rhizoctonia solani, read-out: RHIZSO in vitro Growth Inhibition
[3] = tested on: Magnaporthe grisea (Pyricularia oryzae—PYRIOR); assay: microbe, parasite or virus in culture; format: cell-based; settings: Pyricularia oryzae, read-out: PYRIOR in vitro Growth Inhibition
[4] = tested on: Erysiphe graminis—ERYSGT; assay: Powdery Mildew of Wheat, in vivo whole plant, 24 Hour Protectant; settings: Erysiphe, control of fungal infection vs untreated plants, read-out: ERYSGT in vivo 1 Day Protectant
[5] = tested on: Leptosphaeria nodorum—LEPTNO; assay: Glume Blotch of Wheat, in vivo whole plant, 24 Hour Protectant; settings: control of fungal infection vs untreated plants; for pest or weed control at 100 ppm: Leptosphaeria, read-out: LEPTNO in vivo 1 Day Protectant
[6] = tested on: Phytophthora infestans (PHYTIN); assay: microbe, parasite or virus in culture; format: cell-based; settings: Phytophthora infestans, read-out: PHYTIN in vitro Growth Inhibition
[7] = tested on: Septoria tritici—SEPTTR; assay: Leaf Blotch of Wheat, in vivo whole plant, 24 Hour Protectant; settings: Zymoseptoria tritici, 24 h, control of fungal infection vs untreated plants, read-out: SEPTTR in vivo 1 Day Protectant
[8] = tested on: Ustilago maydis (USTIMA); assay: microbe, parasite or virus in culture; format: cell-based; settings: Mycosarcoma maydis, read-out: USTIMA in vitro Growth Inhibition
[9] = tested on: Stagonospora nodorum (Leptosphaeria nodorum—LEPTNO); assay: In vitro fungal growth inhibition, Stagonospora nodorum (LEPTNO); format: cell-based; settings: Leptosphaeria, read-out: LEPTNO in vitro Growth Inhibition
[10] = tested on: Mycosphaerella graminicola (Septoria tritici—SEPTTR); assay: In vitro fungal growth inhibition, Mycosphaerella graminicola (SEPTTR); format: cell-based; settings: Zymoseptoria tritici, read-out: SEPTTR in vitro Growth Inhibition
[11] = tested on: Puccinia recondita—PUCCRT; assay: Brown Rust of Wheat, in vivo whole plant, 24 Hour Protectant; settings: Puccinia, control of fungal infection vs untreated plants, read-out: PUCCRT in vivo 1 Day Protectant
[12] = wheat plants sprayed at 100 ppm, inoculated after 24 hours
[13] = 100 ppm spray, 24 hour protectant, wheat
[14] = 100 ppm spray, wheat, 24 hour protectant

| Structure (SMILES) | pest or weed control at 100 ppm [1] [%] | melting point | inhibition at 25 ppm [2] [%] | inhibition at 25 ppm [3] [%] | pest or weed control at 100 ppm [4, 12] [%] | inhibition at 25 ppm [6] [%] | pest or weed control at 100 ppm [7, 12] [%] | inhibition at 25 ppm [8] [%] | inhibition at 25 ppm ([9]; 25 ppm in the growth medium) [%] | inhibition at 25 ppm ([10]; 25 ppm in the growth medium) [%] | pest or weed control at 100 ppm [11, 12] [%] | pest or weed control at 100 ppm [5, 12] [%] | other results |
| --- | --- | --- | --- | --- | --- | --- | --- | --- | --- | --- | --- | --- | --- |
| O=C(Nc1ccc(Oc2ccccc2)cc1)c1cccnc1O [Compound 522] | < 25 | 223 to 224 °C | < 80 | < 80 | < 25 | < 80 | < 25 | < 80 | < 80 | < 80 | < 25 | – | LEPTNO in vivo 1 Day Protectant [5, 12]: + + |
| CC1(C)CC(NC(=O)c2nsnc2O)CC(C)(C)C1 [Compound 552] | 25 to 74 | 96 to 102 °C | > 80 | > 80 | 25 to 74 | > 80 | < 25 | < 80 | > 80 | > 80 | < 25 | < 25 | – |
| Cc1ncc(C(=O)NC2CC(C)(C)CC(C)(C)C2)c(O)n1 [Compound 541] | < 25 | > 300 °C | < 80 | < 80 | < 25 | < 80 | 25 to 74 | < 80 | < 80 | < 80 | < 25 | < 25 | – |
| CC(C)C(=O)O[C@H]1[C@H](C)OC(=O)[C@@H](NC(=O)c2cncnc2O)COC(=O)[C@@H]1Cc1ccccc1 [Compound 540] | < 25 | 195 °C (dec.) | < 80 | < 80 | < 25 | < 80 | 25 to 74 | < 80 | < 80 | < 80 | < 25 | < 25 | – |
| CC1(C)CC(NC(=O)c2cscc2O)CC(C)(C)C1 [Compound 554, 4-HYDROXYTHIOPHENE-N-(3,3,5,5-TETRAMETHYLCYCLOHEXYL)-3-CARBOXAMIDE] | < 25 | 170 to 174 °C | < 80 | > 80 | < 25 | > 80 | 25 to 74 | < 80 | > 80 | < 80 | 25 to 74 | 25 to 74 | – |
| COc1ccc(C(C)NC(=O)c2nc(Br)ccc2O)cc1 (stereo not drawn) [Compound 486] | < 25 | 111 to 113 °C | < 80 | > 80 | < 25 | < 80 | < 25 | < 80 | < 80 | < 80 | < 25 | < 25 | – |
| Cc1cc(C)c(C(=O)NC2CC(C)(C)CC(C)(C)C2)c(O)n1 [Compound 528] | < 25 | 286 to 288 °C | < 80 | < 80 | < 25 | < 80 | 25 to 74 | < 80 | < 80 | < 80 | < 25 | < 25 | – |
| O=C(NCc1ccc(Cl)c(Cl)c1)c1ncccc1O [Compound 221] | < 25 | 100 to 101 °C | < 80 | > 80 | – | > 80 | – | < 80 | – | – | – | – | pest or weed control at 100 ppm [4, 13]: < 25%; pest or weed control at 100 ppm [5, 13]: < 25%; pest or weed control at 100 ppm [7, 13]: < 25%; inhibition at 25 ppm ([9]; 25 ppm in growth medium): < 80%; inhibition at 25 ppm ([10]; 25 ppm in growth medium): > 80%; pest or weed control at 100 ppm [11, 13]: < 25% |
| COc1ccnc(C(=O)N[C@H]2CC(=O)OCC(NC(=O)OC(C)(C)C)COC2=O)c1O (stereo partly drawn) [Compound 379] | < 25 | 118 to 121 °C | < 80 | < 80 | – | < 80 | – | < 80 | – | – | – | – | pest or weed control at 100 ppm [4, 14]: 25 to 74%; pest or weed control at 100 ppm [5, 14]: 25 to 74%; pest or weed control at 100 ppm [7, 14]: 25 to 74%; inhibition at 25 ppm ([9]; 25 ppm in growth medium): < 80%; inhibition at 25 ppm ([10]; 25 ppm in growth medium): < 80%; pest or weed control at 100 ppm [11, 14]: 25 to 74% |
| COc1ccnc(C(=O)NC2CC(C)(C)C(OC(=O)c3cccc(Cl)n3)C(C)(C)C2)c1O (stereo not drawn) [Compound 269] | < 25 | 55 to 65 °C | < 80 | < 80 | – | < 80 | – | < 80 | – | – | – | – | pest or weed control at 100 ppm [4, 13]: < 25%; pest or weed control at 100 ppm [5, 13]: < 25%; pest or weed control at 100 ppm [7, 13]: 25 to 74%; inhibition at 25 ppm ([9]; 25 ppm in growth medium): < 80%; inhibition at 25 ppm ([10]; 25 ppm in growth medium): < 80%; pest or weed control at 100 ppm [11, 13]: 25 to 74% |
| Cn1cc(C(=O)NC2CC(C)(C)CC(C)(C)C2)c(O)n1 [Compound 557] | < 25 | 205 to 208 °C | < 80 | < 80 | < 25 | > 80 | 25 to 74 | < 80 | < 80 | < 80 | 25 to 74 | 25 to 74 | – |
